Like-named read-outs stand apart in the source and are kept apart here.
Columns and labels:
Format in all cases: in vivo
[1] = test system: pigweed (Amaranthus retroflexus); test: Test A preemergence; details: Amaranthus retroflexus, pre-emergence, 240 h; for pest or weed control at 125 g/ha: 125 g ai/ha; for pest or weed control at 500 g/ha: 500 g ai/ha
[2] = test system: barnyardgrass (Echinochloa crus-galli); test: Test A preemergence; details: Echinochloa crus-galli, pre-emergence, 240 h; for pest or weed control at 125 g/ha: 125 g ai/ha; for pest or weed control at 500 g/ha: 500 g ai/ha
Procedure, shortened: (§1)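 Each rating is a visual injury score from 0 to 100 given about 10 d after treatment, judged against untreated controls kept alongside in the greenhouse. In loam soil–sand blend, seeds got a preemergence directed soil spray, while postemergence plants were 2 to 10 cm tall at spraying.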

Kochia (Kochia scoparia) [3] = test: Test A preemergence; details: Bassia scoparia, pre-emergence, 240 h; for pest or weed control at 125 g/ha: 125 g ai/ha; for pest or weed control at 500 g/ha: 500 g ai/ha
Procedure, shortened: as §1

[4] = test system: ragweed (common ragweed, Ambrosia elatior); test: Test A preemergence; details: Ambrosia artemisiifolia, pre-emergence, 240 h; for pest or weed control at 125 g/ha: 125 g ai/ha; for pest or weed control at 500 g/ha: 500 g ai/ha
Procedure, shortened: as §1

[5] = test system: ryegrass, Italian (Italian ryegrass, Lolium multiflorum); test: Test A preemergence; details: Lolium multiflorum, pre-emergence, 240 h; for pest or weed control at 125 g/ha: 125 g ai/ha; for pest or weed control at 500 g/ha: 500 g ai/ha
Procedure, shortened: as §1

[6] = test system: pigweed (Amaranthus retroflexus); test: Test A postemergence; details: Amaranthus retroflexus, post-emergence, 240 h, 125 g ai/ha
Procedure, shortened: as §1

[7] = test system: barnyardgrass (Echinochloa crus-galli); test: Test A postemergence; details: Echinochloa crus-galli, post-emergence, 240 h, 125 g ai/ha
Procedure, shortened: as §1

[8] = test system: Galium (catchweed bedstraw, Galium aparine); test: Test A postemergence; details: Galium, post-emergence, 240 h, 125 g ai/ha
Procedure, shortened: as §1

Kochia (Kochia scoparia) [9] = test: Test A postemergence; details: Bassia scoparia, post-emergence, 240 h, 125 g ai/ha
Procedure, shortened: as §1

corn (Zea mays) = test: Test A postemergence; details: Zea mays, post-emergence, 240 h, 125 g ai/ha; for Corn plant response rating (crop injury, 0 = no effect, 100 = complete kill) at 125 g/ha: Postemergence, visual injury after approximately 10 d, 0 to 100 scale where 0 is no effect and 100 is complete control
Procedure, shortened: as §1

[10] = test system: giant foxtail (Setaria faberii); test: Test A postemergence; details: Setaria faberi, post-emergence, 240 h, 125 g ai/ha
Procedure, shortened: as §1

[11] = test system: blackgrass (Alopecurus myosuroides); test: Test A postemergence; details: Alopecurus myosuroides, post-emergence, 240 h, 125 g ai/ha
Procedure, shortened: as §1

[12] = test system: ragweed (common ragweed, Ambrosia elatior); test: Test A postemergence; details: Ambrosia artemisiifolia, post-emergence, 240 h, 125 g ai/ha
Procedure, shortened: as §1

[13] = test system: ryegrass, Italian (Italian ryegrass, Lolium multiflorum); test: Test A postemergence; details: Lolium multiflorum, post-emergence, 240 h, 125 g ai/ha
Procedure, shortened: as §1

[14] = test system: wheat (Triticum aestivum); test: Test A postemergence; details: Triticum aestivum, post-emergence, 240 h, 125 g ai/ha
Procedure, shortened: as §1

[15] = Preemergence, visual injury rating after approximately 10 d, read-out: Pigweed plant response rating (0 to 100 scale, 0 is no effect, 100 is complete control)
[16] = preemergence, visual injury rating about 10 d after treatment, 0 to 100 scale (0 no effect, 100 complete control), read-out: Pigweed plant response rating
[17] = Preemergence, visual injury rating after approximately 10 d, read-out: Barnyardgrass plant response rating (0 to 100 scale, 0 is no effect, 100 is complete control)
[18] = preemergence, visual injury rating about 10 d after treatment, 0 to 100 scale (0 no effect, 100 complete control), read-out: Barnyardgrass plant response rating
[19] = Preemergence, visual injury rating after approximately 10 d, read-out: Kochia plant response rating (0 to 100 scale, 0 is no effect, 100 is complete control)
[20] = preemergence, visual injury rating about 10 d after treatment, 0 to 100 scale (0 no effect, 100 complete control), read-out: Kochia plant response rating
[21] = Preemergence, visual injury rating after approximately 10 d, read-out: Ragweed plant response rating (0 to 100 scale, 0 is no effect, 100 is complete control)
[22] = preemergence, visual injury rating about 10 d after treatment, 0 to 100 scale (0 no effect, 100 complete control), read-out: Ragweed plant response rating
[23] = Preemergence, visual injury rating after approximately 10 d, read-out: Ryegrass, Italian plant response rating (0 to 100 scale, 0 is no effect, 100 is complete control)
[24] = preemergence, visual injury rating about 10 d after treatment, 0 to 100 scale (0 no effect, 100 complete control), read-out: Ryegrass, Italian plant response rating
[25] = Postemergence, visual injury after approximately 10 d, 0 to 100 scale where 0 is no effect and 100 is complete control, read-out: Plant response rating, Pigweed
[26] = Postemergence, visual injury after approximately 10 d, 0 to 100 scale where 0 is no effect and 100 is complete control, read-out: Plant response rating, Barnyardgrass
[27] = Postemergence, visual injury after approximately 10 d, 0 to 100 scale where 0 is no effect and 100 is complete control, read-out: Plant response rating, Galium
[28] = Postemergence, visual injury after approximately 10 d, 0 to 100 scale where 0 is no effect and 100 is complete control, read-out: Plant response rating, Kochia
[29] = Postemergence, visual injury after approximately 10 d, 0 to 100 scale where 0 is no effect and 100 is complete control, read-out: Plant response rating, Foxtail, Giant
[30] = Postemergence, visual injury after approximately 10 d, 0 to 100 scale where 0 is no effect and 100 is complete control, read-out: Plant response rating, Blackgrass
[31] = Postemergence, visual injury after approximately 10 d, 0 to 100 scale where 0 is no effect and 100 is complete control, read-out: Plant response rating, Ragweed
[32] = Postemergence, visual injury after approximately 10 d, 0 to 100 scale where 0 is no effect and 100 is complete control, read-out: Plant response rating, Ryegrass, Italian
[33] = Postemergence, visual injury after approximately 10 d, 0 to 100 scale where 0 is no effect and 100 is complete control, read-out: Plant response rating, Wheat

Compound | pest or weed control at 125 g/ha [1, 15] | pest or weed control at 500 g/ha [1, 16] | pest or weed control at 125 g/ha [2, 17] | pest or weed control at 500 g/ha [2, 18] | pest or weed control at 125 g/ha (Kochia (Kochia scoparia) [3]; [19]) | pest or weed control at 500 g/ha (Kochia (Kochia scoparia) [3]; [20]) | pest or weed control at 125 g/ha [4, 21] | pest or weed control at 500 g/ha [4, 22] | pest or weed control at 125 g/ha [5, 23] | pest or weed control at 500 g/ha [5, 24] | pest or weed control at 125 g/ha [6, 25] | pest or weed control at 125 g/ha [7, 26] | pest or weed control at 125 g/ha [8, 27] | pest or weed control at 125 g/ha (Kochia (Kochia scoparia) [9]; [28]) | Corn plant response rating (crop injury, 0 = no effect, 100 = complete kill) at 125 g/ha (corn (Zea mays)) | pest or weed control at 125 g/ha [10, 29] | pest or weed control at 125 g/ha [11, 30] | pest or weed control at 125 g/ha [12, 31] | pest or weed control at 125 g/ha [13, 32] | plant injury at 125 g/ha [14, 33] | other results
CN1C[C@H](c2cc(C(F)(F)F)cs2)[C@@H](C(=O)Nc2ccccc2F)C1=O [Compound 962] | 0% | 50% | 90% | 90% | 50% | 70% | 20% | 30% | 0% | 30% | 0% | 90% | 30% | 20% | 0% | 90% | 20% | 0% | 20% | 30% | –
COc1c(F)ccc([C@H]2CNC(=O)[C@@H]2C(=O)Nc2ccc(F)cc2F)c1Cl [Compound 883] | – | – | – | – | – | – | – | – | – | – | – | – | – | – | – | – | – | – | – | – | pest or weed control at 125 g/ha ([1]; preemergence, 0 to 100 scale where 0 is no effect and 100 is complete control, read-out: Pigweed plant response rating): 0%; pest or weed control at 500 g/ha ([1]; Preemergence, visual injury vs untreated controls after approximately 10 d, read-out: Pigweed plant response rating (0 to 100 scale where 0 is no effect and 100 is complete control)): 0%; pest or weed control at 125 g/ha ([2]; preemergence, 0 to 100 scale where 0 is no effect and 100 is complete control, read-out: Barnyardgrass plant response rating): 90%; pest or weed control at 500 g/ha ([2]; Preemergence, visual injury vs untreated controls after approximately 10 d, read-out: Barnyardgrass plant response rating (0 to 100 scale where 0 is no effect and 100 is complete control)): 90%; pest or weed control at 125 g/ha (Kochia (Kochia scoparia) [3]; preemergence, 0 to 100 scale where 0 is no effect and 100 is complete control, read-out: Kochia plant response rating): 30%; pest or weed control at 500 g/ha (Kochia (Kochia scoparia) [3]; Preemergence, visual injury vs untreated controls after approximately 10 d, read-out: Kochia plant response rating (0 to 100 scale where 0 is no effect and 100 is complete control)): 60%; pest or weed control at 125 g/ha ([4]; preemergence, 0 to 100 scale where 0 is no effect and 100 is complete control, read-out: Ragweed plant response rating): 0%; pest or weed control at 500 g/ha ([4]; Preemergence, visual injury vs untreated controls after approximately 10 d, read-out: Ragweed plant response rating (0 to 100 scale where 0 is no effect and 100 is complete control)): 0%; pest or weed control at 125 g/ha ([5]; preemergence, 0 to 100 scale where 0 is no effect and 100 is complete control, read-out: Ryegrass, Italian plant response rating): 0%; pest or weed control at 500 g/ha ([5]; Preemergence, visual injury vs untreated controls after approximately 10 d, read-out: Ryegrass, Italian plant response rating (0 to 100 scale where 0 is no effect and 100 is complete control)): 20%; pest or weed control at 125 g/ha ([6]; postemergence, visual injury rating after approximately 10 d, read-out: Pigweed plant response rating (0 to 100 scale, 0 no effect, 100 complete control)): 0%; pest or weed control at 125 g/ha ([7]; postemergence, visual injury rating after approximately 10 d, read-out: Barnyardgrass plant response rating (0 to 100 scale, 0 no effect, 100 complete control)): 90%; pest or weed control at 125 g/ha ([8]; postemergence, visual injury rating after approximately 10 d, read-out: Galium plant response rating (0 to 100 scale, 0 no effect, 100 complete control)): 0%; pest or weed control at 125 g/ha (Kochia (Kochia scoparia) [9]; postemergence, visual injury rating after approximately 10 d, read-out: Kochia plant response rating (0 to 100 scale, 0 no effect, 100 complete control)): 30%; plant injury at 125 g/ha (corn (Zea mays); postemergence, visual injury rating after approximately 10 d, read-out: Corn plant response rating (0 to 100 scale, 0 no effect, 100 complete control)): 0%; pest or weed control at 125 g/ha ([10]; postemergence, visual injury rating after approximately 10 d, read-out: Foxtail, Giant plant response rating (0 to 100 scale, 0 no effect, 100 complete control)): 70%; pest or weed control at 125 g/ha ([11]; postemergence, visual injury rating after approximately 10 d, read-out: Blackgrass plant response rating (0 to 100 scale, 0 no effect, 100 complete control)): 0%; pest or weed control at 125 g/ha ([12]; postemergence, visual injury rating after approximately 10 d, read-out: Ragweed plant response rating (0 to 100 scale, 0 no effect, 100 complete control)): 0%; pest or weed control at 125 g/ha ([13]; postemergence, visual injury rating after approximately 10 d, read-out: Ryegrass, Italian plant response rating (0 to 100 scale, 0 no effect, 100 complete control)): 0%; plant injury at 125 g/ha ([14]; postemergence, visual injury rating after approximately 10 d, read-out: Wheat plant response rating (0 to 100 scale, 0 no effect, 100 complete control)): 0%
Cc1cc([C@H]2CN(C)C(=O)[C@@H]2C(=O)Nc2ccccc2S(C)(=O)=O)ccc1Cl [Compound 944] | 0% | 20% | 90% | 90% | 0% | 70% | 50% | 50% | 0% | 0% | 30% | 80% | 20% | 0% | 30% | 90% | 60% | 40% | 30% | 40% | –
